Results on three molecules are retold here after patent publication US20060149064A1, “Process to prepare malayamycin derivatives” (priority 2003, published 2006).

For series [1], the system named is Blumeria graminis f. sp. tritici (ERYSGT). Briefly: Foliar protectant test against Blumeria graminis f. sp. tritici (ERYSGT) on wheat. Format: in vivo. As to conditions: 100 ppm foliar spray on wheat; inoculated 6 hours after application; banded assessment. How it is done: (§1) This Example illustrates the fungicidal properties of certain of the novel compounds of formula (I). The compounds were tested against a variety of foliar fungal diseases of plants. The technique employed was as follows. Plants were grown on an artificial, cellulose based growing medium. The test compounds were individually diluted in reverse osmosis water to a final concentration of 100 ppm in water (that is, 1 mg of compound in a final volume of 10 ml) immediately before use. TWEEN 20 (at a final concentration of 0.05% by volume) was added with the water to improve retention of the spray deposit. TWEEN is a registered trade mark. The compounds were applied to the foliage of the test plants by spraying the plant to maximum droplet retention. […] After chemical application and inoculation, the plants were incubated under high humidity conditions (except those inoculated with Blumeria graminis f. sp. tritici) and then put into an appropriate environment to allow infection to proceed until the disease was ready for assessment. […] However, each individual disease was assessed after the same time period for all compounds. […] The disease level present (the percentage leaf area covered by actively sporulating disease) was assessed visually. For each treatment, the assessed values for all its replicates were meaned to provide mean disease values. Untreated control plants were assessed in the same manner. […]

The test system of series [2] is Stagonospora nodorum (LEPTNO). Put plainly: Foliar protectant test against Stagonospora nodorum (LEPTNO) on wheat. The settings on record: 100 ppm foliar spray on wheat; inoculated one day after application; banded assessment. The format is in vivo. How it is done:
as §1

Series [3] deals with Puccinia triticina (PUCCRT). Briefly: Foliar protectant test against Puccinia triticina (PUCCRT) on wheat. Format: in vivo. As to conditions: 100 ppm foliar spray on wheat; inoculated one day after application; banded assessment. How it is done: as §1

Turning to `NC(=O)N[C@H]1[C@H]2O[C@@H](c3c[nH]c(=O)[nH]c3=O)C(O)[C@@H]2OC[C@H]1O` (stereo partly shown) [compound 3, desmethylmalayamycin A], the “PRCO (percentage Disease Reduction from Control) ERYSGT 6 hour Protectant” value in series [1] was determined as 0. Besides, the “PRCO (percentage Disease Reduction from Control) LEPTNO 1 day Protectant” value in series [2] is given as 100. For the same molecule, the “PRCO (percentage Disease Reduction from Control) PUCCRT 1 day Protectant” value in series [3] came out at 100.

Regarding `CO[C@H]1CO[C@H]2C(O)[C@H](c3c[nH]c(=O)[nH]c3=O)O[C@@H]2[C@@H]1NC(N)=O` (stereo partly drawn) [compound 2, 6-epi-malayamycin A], the “PRCO (percentage Disease Reduction from Control) ERYSGT 6 hour Protectant” value in series [1] was 50. Also, in series [2], the “PRCO (percentage Disease Reduction from Control) LEPTNO 1 day Protectant” value is reported as 45. The “PRCO (percentage Disease Reduction from Control) PUCCRT 1 day Protectant” value in series [3] is 100.

Regarding `CO[C@@H]1CO[C@H]2C(O)[C@H](c3c[nH]c(=O)[nH]c3=O)O[C@@H]2[C@@H]1NC(N)=O` (stereo partly shown) [Compound No. 1, malayamycin A], the melting point (as a rule, the temperature, or range, at which the solid turns liquid) is 158 °C (dec.).
